Source: patent US8026240B2, “Octahydro-pyrrolo[3,4-b]pyrrole N-oxides” (Abbott Laboratories, priority 2007, dated 2011)

Target: T1, rat histamine-3 receptor (Rattus norvegicus, UniProt Q9QYN8)
T1 construct: expressed in transfected cells; host or cells: C6 or HEK293 cells
Experiment: histamine-3 receptor competition binding with [H3]-N-α-methylhistamine
Description: To determine the effectiveness of representative compounds of this invention as histamine-3 receptor ligands, the following tests were conducted according to previously described methods (see Arrang et al, “Histamine H3 Receptor Binding Sites in Rat Brain Membranes:Modulations by Guanine Nucleotides and Divalent Cations”, European Journal of Pharmacology, Vol. 188, pp. 219-227 (1990); Tedford et al., “Pharmacological Characterization of GT-2016, A Non-Thiourea-Containing Histamine H3 Receptor Antagonist: In Vitro and In Vivo Studies”, The Journal of Pharmacology and Experimental Therapeutics, Vol. 275, pp. 598-604 (1995); Leurs et al., “Histamine Homologues Discriminating Between Two Functional H3-Receptor Assays. Evidence for H3 Receptor”, Journal of Pharmacology and Experimental Therapeutics, Vol. 276, No. 3, pp. 1009-1015 (1996); and Cheng et al., “Relationship Between the Inhibition Constant (K1) and the Concentration of Inhibitor which Causes 50% Inhibition (150) of an Enzymatic Reaction”, Biochemical Pharmacology, Vol. 22., pp. 3099-3108 (1973)).
The rat histamine-3 receptor was cloned and expressed in cells, and competition binding assays carried out, according to methods previously described (see Esbenshade et al., “Pharmacological Properties of ABT-239 [4-(2-{2-[(2R)-2-Methylpyrrolidinyl ]ethyl}-benzofuran-5-yl)benzonitrile]: I. Potent and Selective Histamine H3 Receptor Antagonist with Drug-Like Properties”, Journal of Pharmacology and Experimental Therapeutics, Vol. 313, pp. 165-175, (2005); Esbenshade et al., “Pharmacological and Behavioral Properties of A-349821, a Selective and Potent Human Histamine H3 Receptor Antagonist”, Biochemical Pharmacology, Vol 68, pp. 933-945 (2004); Krueger et al., “G Protein-Dependent Pharmacology of Histamine H3 Receptor Ligands: Evidence for Heterogeneous Active State Receptor Conformations”, Journal of Pharmacology and Experimental Therapeutics, Vol. 314, pp. 271-281 (2005)). Membranes were prepared from C6 or HEK293 cells, expressing the rat histamine-3 receptor, by homogenization on ice in TE buffer (50 mM Tris-HCl buffer, pH 7.4, containing 5 mM EDTA), 1 mM benzamidine, 2 μg/ml aprotinin, 1 μg/ml leupeptin, and 1 μg/ml pepstatin. The homogenate was centrifuged at 40,000 g for 20 minutes at 4° C. […]
Membrane preparations were incubated with [H3]-N-α-methylhistamine (0.5-1.0 nM) in the presence or absence of increasing concentrations of ligands of formula (I) and formula (II) for histamine-3 receptor competition binding. […] Bound radiolabel was determined by liquid scintillation counting. For all of the radioligand competition binding assays, IC50 values and Hill slopes were determined by Hill transformation of the data and pKi values were determined by the Cheng-Prusoff equation.

[1] = compounds of formula (I), mean of 4 separate determinations

T1 sequence (Q9QYN8 whole entry): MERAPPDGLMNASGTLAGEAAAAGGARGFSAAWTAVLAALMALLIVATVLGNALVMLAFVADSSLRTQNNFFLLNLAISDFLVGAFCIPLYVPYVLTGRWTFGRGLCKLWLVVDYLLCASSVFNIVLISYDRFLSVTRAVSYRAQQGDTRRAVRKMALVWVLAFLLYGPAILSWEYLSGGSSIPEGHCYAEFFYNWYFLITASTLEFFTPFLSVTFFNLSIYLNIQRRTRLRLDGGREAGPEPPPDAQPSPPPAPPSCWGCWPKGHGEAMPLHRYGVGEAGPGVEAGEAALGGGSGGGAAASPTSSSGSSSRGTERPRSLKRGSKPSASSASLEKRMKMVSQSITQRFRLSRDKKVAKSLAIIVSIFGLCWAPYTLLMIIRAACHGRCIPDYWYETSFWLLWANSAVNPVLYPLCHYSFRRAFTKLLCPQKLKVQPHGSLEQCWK

Row | Ki [1] | SMILES | Ki (compounds of formula (II))
1 | > 5000 nM | C[N@@+]1([O-])C[C@H]2CCN(c3ccc(-c4ccc(-n5ncccc5=O)cc4)cc3)[C@H]2C1 (single isomer, unassigned) | –
2 | 2240 nM | C[N@+]1([O-])C[C@H]2CCN(c3ccc(-c4ccc(-n5ncccc5=O)cc4)cc3)[C@H]2C1 (single isomer, unassigned) | –
3 | – | CN1C[C@H]2CCN(c3ccc(-c4ccc(-n5ncccc5=O)nc4)cc3)[C@H]2C1 [2-(5-{4-[(3aR,6aR)-5-methylhexahydropyrrolo[3,4-b]pyrrol-1(2H)-yl]phenyl}pyridin-2-yl) pyridazin-3(2H)-one] | 3.5 nM
4 | – | CN1C[C@H]2CCN(c3ccc(-c4ccc(-n5ncccc5=O)cc4)cc3)[C@H]2C1 [2-{4′-[(3aR,6aR)-5-methylhexahydropyrrolo[3,4-b]pyrrol-1(2H)-yl]-1,1′-biphenyl-4-yl}pyridazin-3(2H)-one] | 8.2 nM
